Test results taken from patent publication US20250235545A1, “POLYPEPTIDE CONJUGATE AND USE THEREOF” (SHANGHAI CHIXI BIOMEDICAL TECHNOLOGY CO., LTD, priority 2024, published 2025).
Values after ≈ are worked out from the molar mass of the structure shown. Where two headings read alike, the source gives them in different places. Where a SMILES comes first, the peptide text is derived from it. The star is where a group is joined. X6 = CCCCCN(CCc1c2c(nc3ccccc13)-c1cc3c(c(=O)n1C2)COC(=O)[C@]3(O)CC)*; X1 = CC[C@@]1(O)C(=O)OCc2c1cc1n(c2=O)Cc2c-1nc1ccccc1c2CCN(C1CCC1)*; X4 = CCCN(CCc1c2c(nc3ccccc13)-c1cc3c(c(=O)n1C2)COC(=O)[C@]3(O)CC)*; X3 = CC[C@@]1(O)C(=O)OCc2c1cc1n(c2=O)Cc2c-1nc1ccccc1c2CCN(C1CC1)*; Propanoyl(3-maleimido) = O=C1C=CC(=O)N1CCC(=O)*; PEG6 = NCCOCCOCCOCCOCCOCCOCCC(=O)O

Key:
A2780 (ovarian cancer) = test: cells; format: cell-based; conditions: CCK8, 48 h; Table 1
Method in brief: (§1)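 Tumour cells grow for 48 h with the compounds at several concentrations (5,000 cells/well, triplicate, 37° C, 5% CO2), in serum-supplemented RPMI1640 or high-glucose DMEM. Viability is measured with CCK8 reagent at 450 nm, and IC50 is calculated.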

[1] = tested on: A549 (non-small cell lung cancer); test: cells; format: cell-based; conditions: CCK8, 48 h; Table 1
Method in brief: as §1

SJSA-1 (sarcoma tissue) = test: cells; format: cell-based; conditions: CCK8, 48 h; Table 1
Method in brief: as §1

[2] = tested on: SKBR3 (breast cancer tissue); test: cells; format: cell-based; conditions: CCK8, 48 h; Table 1
Method in brief: as §1

[3] = tested on: sarcoma SJSA-1 tumor model; conditions: Table 2
Method in brief: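 SJSA-1 cells (2×10^7, DMEM/10% FBS, under 15 passages) implanted subcutaneously in right chest of female BALB/c nude mice, 6-8 weeks old. At ≥100 mm^3, randomized three per group; dosing once weekly for three weeks, saline as control, day 1 = first treatment.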

[4] = tested on: colo320 colorectal cancer tumor model
Method in brief: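 Female BALB/c nude mice, 6–8 weeks old, received 7.5×10^6 colo320 cells subcutaneously in the right chest. Once tumors reached at least 120 mm^3 they were randomized three per group. Treatment with test agents or saline control was given once weekly for four weeks.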

[5] = tested on: sarcoma SJSA-1 tumor model; test: Efficacy in animal model of sarcoma SJSA-1, 30 mg/kg once a week for two weeks (Example 40); format: in vivo, BALB/c mice; conditions: 30 mg/kg once a week for two weeks
Protocol: Test objective: To further compare the antitumor efficacy of different polypeptide Linkers in an animal tumor model of sarcoma SJSA-1.
(§2) Test drug: Polypeptide conjugate and normal saline control group.
The control group was administered normal saline. Administration was performed once a week for two weeks.

[6] = tested on: A2780 ovarian cancer tumor model; test: Efficacy in animal model of A2780 ovarian cancer, 30 mg/kg once a week for two weeks (Example 41); format: in vivo, BALB/c mice
Protocol: Test objective: To further compare the antitumor efficacy of different polypeptide Linkers in an animal tumor model of A2780 ovarian cancer.
as §2
8×10^6 corresponding cells were injected into right axillas of nude mice subcutaneously. […] The negative control group was administered normal saline. Administration was performed once a week for two weeks.

[7] = MTD determination in mice (Examples 27, 36, 44); format: in vivo; conditions: female, mouse, in vivo; mice, monitored for 14 d; Table 4
Text: Test animals: 6-8 weeks old mice, all female; mice were grouped randomly, with six mice in each group, administered with drugs at different concentration gradients separately and monitored for 14 d. A mouse was euthanized at a loss of 20% of its initial weight and deemed to have died of poisoning.

[8] = Tumor homogenate activation efficiency, ovarian cancer tissue (Examples 28, 37); format: in vitro ADME; conditions: pH 5.0, 37° C., 2 h; Table 5
Protocol: (§3) Buffer preparation: 50 mM PH buffer (MES), 250 mM NaCl, pH adjusted to 5.0 with 0.5 M of sodium hydroxide.
(§4) The polypeptide conjugate was prepared into a 1 mg/ml solution with pH 5.0 buffer, 100 μg of tumor tissue homogenate was added, (the tumor tissue homogenate was the homogenate of tumor tissues prepared with a Jingxin F6/10 handheld homogenizer), and the solution was placed at 37° C. for 2 h. The tumor tissue homogenate could effectively activate the polypeptide conjugate and release Belotecan, and the activation efficiencies of the drugs in tumor tissues were compared by high-performance liquid chromatography (HPLC) allowing determination of a decrease in the compounds and an increase in Belotecan:
(§5) Release percentage=peak area of Belotecan/total peak area of Belotecan and all other Belotecan-containing compounds
as §4, with “HPLC” for “high-performance liquid chromatography (HPLC)”, “Belotecan: […]” for “Belotecan:”

[9] = Tumor homogenate activation efficiency, sarcoma tissue (Examples 28, 37); format: in vitro ADME; conditions: pH 5.0, 37° C., 2 h; Table 5
Protocol: as §3, §4, §5
as §4, with “HPLC” for “high-performance liquid chromatography (HPLC)”, “Belotecan: […]” for “Belotecan:”

[10] = Tumor homogenate activation efficiency, breast cancer tissue (Examples 28, 37); format: in vitro ADME; conditions: pH 5.0, 37° C., 2 h; Table 5
Protocol: as §3, §4, §5
as §4, with “HPLC” for “high-performance liquid chromatography (HPLC)”, “Belotecan: […]” for “Belotecan:”

[11] = Tumor homogenate activation efficiency, non-small cell lung cancer tissue (Examples 28, 37); format: in vitro ADME; conditions: pH 5.0, 37° C., 2 h; Table 5
Protocol: as §3, §4, §5
as §4, with “HPLC” for “high-performance liquid chromatography (HPLC)”, “Belotecan: […]” for “Belotecan:”

[12] = Tumor homogenate activation efficiency, small cell lung cancer tissue (Example 28); format: in vitro ADME; conditions: pH 5.0, 37° C., 2 h; Table 5
Protocol: as §3, §4, §5

[13] = Homogenate activation efficiency, heart tissue (Examples 28, 37); format: in vitro ADME; conditions: pH 5.0, 37° C., 2 h; Table 5
[14] = 15 mg/kg once a week for three weeks
[15] = 45 mg/kg once a week for three weeks
[16] = 15 mg/kg once a week for four weeks, Table 3
[17] = 45 mg/kg once a week for four weeks, Table 3
[18] = Table 14 (Example 43), dose 45 mg/kg, once a week for four weeks, BALB/c mice

| Structure (SMILES) | IC50 A2780 (ovarian cancer) (A2780 (ovarian cancer)) | IC50 A549 (non-small cell lung cancer) [1] | IC50 SJSA-1 (sarcoma tissue) (SJSA-1 (sarcoma tissue)) | IC50 SKBR3 (breast cancer tissue) [2] | Mouse weight (%) [3, 14] | SJSA-1 (sarcoma tissue) mean tumor volume (mm^3) [3, 14] | SJSA-1 (sarcoma) Growth rate (%) [3, 14] | Mouse weight (%) [3, 15] | SJSA-1 (sarcoma tissue) mean tumor volume (mm^3) [3, 15] | Mouse weight (%) [4, 16] | Mouse weight (%) [4, 17] | Mouse weight (%) on Day 14 [5] | Mouse weight (%) on Day 14 [6] | MTD at 14 d [7] | Percentage of release efficiency (%) Ovarian cancer tissue (A2780) [8] | Percentage of release efficiency (%) Sarcoma tissue (SJSA1) [9] | Percentage of release efficiency (%) Breast cancer tissue (SKBR3) [10] | Percentage of release efficiency (%) Non-small cell lung cancer tissue (A549) [11] | Percentage of release efficiency (%) Small cell lung cancer tissue (NCI-H841) [12] | Percentage of release efficiency (%) Heart tissue [13] | also measured |
| --- | --- | --- | --- | --- | --- | --- | --- | --- | --- | --- | --- | --- | --- | --- | --- | --- | --- | --- | --- | --- | --- |
| CCCN(CCc1c2c(nc3ccccc13)-c1cc3c(c(=O)n1C2)COC(=O)[C@]3(O)CC)C(=O)CNC(=O)[C@H](CC(N)=O)NC(=O)[C@H](C)NC(=O)[C@H](C)NC(=O)CCOCCOCCOCCOCCOCCOCCNC(=O)CCN1C(=O)C=CC1=O [MI-6PEG-AANG-D3] ({Propanoyl(3-maleimido)-PEG6}-AANG-X4) | 1.80 µg/mL (≈ 1.46 µM) | 3.41 µg/mL (≈ 2.76 µM) | 1.63 µg/mL (≈ 1.32 µM) | 2.42 µg/mL (≈ 1.96 µM) | +29% | 1325.4 mm^3 | 1095.4% | +26% | 1098.2 mm^3 | +31% | +20% | +3.6% | +11.4% | 350 mg/kg | 76.2% | 88.9% | 84.6% | 82.6% | 71.2% | 3.6% | SJSA-1 (sarcoma) Growth rate (%) [3, 15]: 930.68%; colo320 (colorectal cancer cell) growth rate (%) [4, 16]: 985.14%; colo320 (colorectal cancer cell) mean tumor volume (mm^3) [4, 16]: 1091.1 mm^3; colo320 (colorectal cancer cell) growth rate (%) [4, 17]: 481.06%; colo320 (colorectal cancer cell) mean tumor volume (mm^3) [4, 17]: 532.8 mm^3; SJSA-1 (sarcoma tissue) mean tumor volume (mm^3) Day 1 [5]: 132.12 mm^3; SJSA-1 (sarcoma tissue) mean tumor volume (mm^3) Day 4 [5]: 360.28 mm^3; SJSA-1 (sarcoma tissue) mean tumor volume (mm^3) Day 7 [5]: 610.04 mm^3; SJSA-1 (sarcoma tissue) mean tumor volume (mm^3) Day 10 [5]: 833.76 mm^3; SJSA-1 (sarcoma tissue) growth rate (%) on Day 14 [5]: 1002.12%; SJSA-1 (sarcoma tissue) mean tumor volume (mm^3) Day 14 [5]: 1324.00 mm^3; A2780 (ovarian cancer) mean tumor volume (mm^3) Day 1 [6]: 138.55 mm^3; A2780 (ovarian cancer) mean tumor volume (mm^3) Day 4 [6]: 302.74 mm^3; A2780 (ovarian cancer) mean tumor volume (mm^3) Day 7 [6]: 742.51 mm^3; A2780 (ovarian cancer) mean tumor volume (mm^3) Day 10 [6]: 898.06 mm^3; A2780 (ovarian cancer) mean tumor volume (mm^3) Day 14 [6]: 1141.65 mm^3; Growth rate (%) of A2780 (ovarian cancer) on Day 14 [6]: 824.00% |
| CCCCCN(CCc1c2c(nc3ccccc13)-c1cc3c(c(=O)n1C2)COC(=O)[C@]3(O)CC)C(=O)CNC(=O)[C@H](CC(N)=O)NC(=O)[C@H](C)NC(=O)[C@H](C)NC(=O)CCOCCOCCOCCOCCOCCOCCNC(=O)CCN1C(=O)C=CC1=O [MI-6PEG-AANG-D4] ({Propanoyl(3-maleimido)-PEG6}-AANG-X6) | 4.88 µg/mL (≈ 3.87 µM) | 6.37 µg/mL (≈ 5.05 µM) | 2.52 µg/mL (≈ 2 µM) | 4.54 µg/mL (≈ 3.6 µM) | +27% | 1305.6 mm^3 | 1081.87% | +26% | 994.5 mm^3 | +40% | +18% | +4.1% | +9.6% | 350 mg/kg | 86.7% | 72.4% | 80.7% | 78.7% | 67.2% | 2.4% | SJSA-1 (sarcoma) Growth rate (%) [3, 15]: 842.80%; colo320 (colorectal cancer cell) growth rate (%) [4, 16]: 870.11%; colo320 (colorectal cancer cell) mean tumor volume (mm^3) [4, 16]: 963.7 mm^3; colo320 (colorectal cancer cell) growth rate (%) [4, 17]: 544.80%; colo320 (colorectal cancer cell) mean tumor volume (mm^3) [4, 17]: 603.4 mm^3; SJSA-1 (sarcoma tissue) mean tumor volume (mm^3) Day 1 [5]: 131.57 mm^3; SJSA-1 (sarcoma tissue) mean tumor volume (mm^3) Day 4 [5]: 385.46 mm^3; SJSA-1 (sarcoma tissue) mean tumor volume (mm^3) Day 7 [5]: 607.62 mm^3; SJSA-1 (sarcoma tissue) mean tumor volume (mm^3) Day 10 [5]: 847.33 mm^3; SJSA-1 (sarcoma tissue) growth rate (%) on Day 14 [5]: 941.81%; SJSA-1 (sarcoma tissue) mean tumor volume (mm^3) Day 14 [5]: 1239.14 mm^3; A2780 (ovarian cancer) mean tumor volume (mm^3) Day 1 [6]: 138.58 mm^3; A2780 (ovarian cancer) mean tumor volume (mm^3) Day 4 [6]: 278.49 mm^3; A2780 (ovarian cancer) mean tumor volume (mm^3) Day 7 [6]: 624.53 mm^3; A2780 (ovarian cancer) mean tumor volume (mm^3) Day 10 [6]: 791.18 mm^3; A2780 (ovarian cancer) mean tumor volume (mm^3) Day 14 [6]: 977.54 mm^3; Growth rate (%) of A2780 (ovarian cancer) on Day 14 [6]: 705.40% |
| CC[C@@]1(O)C(=O)OCc2c1cc1n(c2=O)Cc2c-1nc1ccccc1c2CCN(C(=O)CNC(=O)[C@H](CC(N)=O)NC(=O)[C@H](C)NC(=O)[C@H](C)NC(=O)CCOCCOCCOCCOCCOCCOCCNC(=O)CCN1C(=O)C=CC1=O)C1CC1 [MI-6PEG-AANG-D6] ({Propanoyl(3-maleimido)-PEG6}-AANG-X3) | 0.77 µg/mL (≈ 0.625 µM) | 1.55 µg/mL (≈ 1.26 µM) | 0.49 µg/mL (≈ 0.398 µM) | 1.81 µg/mL (≈ 1.47 µM) | +24% | – | – | +3% | – | +27% | +17% | −0.6% | +8.5% | 200 mg/kg | 75.9% | 79.9% | 82.1% | 73.1% | 76% | 2.5% | Mouse weight (%) [4, 18]: +17% |
| CC[C@@]1(O)C(=O)OCc2c1cc1n(c2=O)Cc2c-1nc1ccccc1c2CCN(C(=O)CNC(=O)[C@H](CC(N)=O)NC(=O)[C@H](C)NC(=O)[C@H](C)NC(=O)CCOCCOCCOCCOCCOCCOCCNC(=O)CCN1C(=O)C=CC1=O)C1CCC1 [MI-6PEG-AANG-D7] ({Propanoyl(3-maleimido)-PEG6}-AANG-X1) | 1.21 µg/mL (≈ 0.972 µM) | 1.89 µg/mL (≈ 1.52 µM) | 0.53 µg/mL (≈ 0.426 µM) | 2.64 µg/mL (≈ 2.12 µM) | +31% | – | – | +26% | – | +26% | +31% | +1.6% | +15.6% | 250 mg/kg | 84.5% | 64.3% | 78.8% | 77% | 66.1% | 2% | Mouse weight (%) [4, 18]: +31% |
